{
  "source": "patent US7297691B2",
  "about": "“Treatment of sleep disorders with cholinesterase inhibitors” (priority 2003, dated 2007)",
  "key": {"[1]": {"settings": "in vivo; cited from earlier work"}, "[2]": {"settings": "cited from earlier work"}, "[3]": {"target": "T1, butyrylcholinesterase (pseudocholinesterase) in serum (Homo sapiens, UniProt P06276)", "T1 construct": "butyrylcholinesterase (pseudocholinesterase) in serum; from tissue; host or cells: serum of patients", "T1 sequence (P06276 29-602)": "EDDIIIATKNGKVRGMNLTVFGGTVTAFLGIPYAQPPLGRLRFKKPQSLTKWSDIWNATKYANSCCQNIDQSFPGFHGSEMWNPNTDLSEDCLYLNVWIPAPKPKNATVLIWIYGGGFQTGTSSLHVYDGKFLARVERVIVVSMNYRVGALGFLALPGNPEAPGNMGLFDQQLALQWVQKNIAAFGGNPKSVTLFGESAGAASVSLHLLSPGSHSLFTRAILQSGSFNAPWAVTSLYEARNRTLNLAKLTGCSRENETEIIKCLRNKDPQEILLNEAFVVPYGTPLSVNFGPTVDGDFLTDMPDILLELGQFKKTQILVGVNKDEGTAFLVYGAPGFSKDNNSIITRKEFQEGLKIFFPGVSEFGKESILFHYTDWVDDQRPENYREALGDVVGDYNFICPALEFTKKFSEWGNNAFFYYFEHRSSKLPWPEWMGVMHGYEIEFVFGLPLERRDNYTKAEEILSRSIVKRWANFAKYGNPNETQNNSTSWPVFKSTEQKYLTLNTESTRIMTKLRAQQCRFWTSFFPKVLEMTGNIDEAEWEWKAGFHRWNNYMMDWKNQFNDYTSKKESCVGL", "experiment": "SIGMA DIAGNOSTICS CHOLINESTERASE (PTC) kit, serum ChE activity in blood samples", "format": "biochemical", "settings": "for Serum ChE activity: blood samples from 3 patients, no Nivalin = 1.00", "method": "(§1) SIGMA DIAGNOSTICS® CHOLINESTERASE (PTC) kit, available from Sigma Diagnostics, can be used for determining the activity and selectivity of cholinesterase inhibitors.\n(§2) Reactions involved in the cholinesterase assay are as follows:\n(§3) [drawing 4] 5-thio-2-nitrobenzoic acid is assessed by measuring the absorbance at 405 nm. The rate of change in absorbance at 405 nm is directly proportional to cholinesterase activity.\n(§4) The activity of erythrocyte cholinesterase may be calculated on the basis of the measurement of butyrylcholinesterase (pseudocholinesterase) in serum and cholinesterase in hemolyzed whole blood (hemolysate), both measured simultaneously by the method described above, and evaluated according to the hematocrit value according to the formula HchE=(EchE×Hct*)+(PchE×(1−Hct*)) Therefore, EchE=(HchE−(PchE×(1−Hct*))/Hct*. • Hematocrit value expressed as decimal equivalent (i.e. 25%=0.25) In the above formulae, EChE is erythrocyte cholinesterase activity, PChE is plasma cholinesterase activity, HChE is hemolysate cholinesterase activity, and Hct is hematocrit value of the sample.\n(§5) Another way of assessing the cholinesterase activity is to measure the plasma cholinesterase and the cholinesterase in purified hemolyzed erythrocytes. By doing this, the values are obtained directly.\n(§6) Blood samples from 3 patients are tested with the Sigma test."}, "[4]": {"tested_on": "cholinesterase in hemolyzed whole blood (hemolysate)", "experiment": "SIGMA DIAGNOSTICS CHOLINESTERASE (PTC) kit, hemolysate ChE activity in blood samples", "format": "biochemical, human", "settings": "for Hemolysate ChE activity: blood samples from 3 patients, no Nivalin = 1.00", "method": "as §1, §2, §3, §4, §5, §6"}, "[5]": {"settings": "in humans; cited from earlier work"}, "[6]": {"settings": "cited from earlier work", "remark": "listed apart in the source"}, "[7]": {"experiment": "side effects in patients treated", "format": "in vivo, human"}, "[8]": {"settings": "1.25 μg/ml Nivalin added in vitro"}, "[9]": {"settings": "2.50 μg/ml Nivalin added in vitro"}, "[10]": {"settings": "1.25 and 2.5 μg/ml added in vitro"}},
  "note": "Counter-ions that a name gives are not always drawn.",
  "data": [
    {"molecule": "COc1ccc2c3c1O[C@H]1C[C@@H](O)C=C[C@@]31CCN(C)C2", "note": "[Nivalin, Galantamine hydrobromide]", "values": [
      {"measurement": "elimination half life", "setting": "[1]", "value": "over four hours"},
      {"measurement": "lipid solubility", "setting": "[2]", "value": "lipid soluble"},
      {"measurement": "Serum ChE activity", "setting": "[3]; [8]", "value": 0.98},
      {"measurement": "Serum ChE activity", "setting": "[3]; [9]", "value": 0.97},
      {"measurement": "change of serum activity as a response to the addition", "setting": "[3]; [10]", "value": "do not show any statistically significant change"},
      {"measurement": "Hemolysate ChE activity", "setting": "[4]; [8]", "value": 0.96},
      {"measurement": "Hemolysate ChE activity", "setting": "[4]; [9]", "value": 0.86},
      {"measurement": "change of hemolysate cholinesterase activity with increased concentration", "setting": "[4]; [10]", "value": "significant reduction"},
      {"measurement": "passing the blood-brain barrier", "setting": "[5]", "value": "transverses the blood brain barrier easily"}
    ]},
    {"molecule": "[4aS-(4aα,6β,8aR*)]-4a,5,9,10 11,12-hexahydro-3-methoxy-11-methyl-6H-benzofuro[3a,3,2-ef][2]benzazepin-6-ol [Galantamine]", "values": [
      {"measurement": "complete elimination of metabolites and galantamine", "setting": "[1]", "value": 72, "unit": "h"},
      {"measurement": "solubility in water", "setting": "[2]; at room temperature", "value": "only sparingly soluble"},
      {"measurement": "toxicity", "setting": "[6]; in therapeutic concentrations", "value": "relatively low toxicity"},
      {"measurement": "severe side effects", "setting": "[6]; in therapeutically effective dosages", "value": "no severe side effects"},
      {"measurement": "reported cases of liver toxicity or serious side effects", "setting": "[6]; use as anticurare agent in anesthesiology since around 1958", "value": "without any reported case"},
      {"measurement": "more severe side effects, share of patients", "setting": "[7]", "value": "4-6%"},
      {"measurement": "vomiting and dizziness, share of patients", "setting": "[7]; disappearing after about one week in most cases", "value": "5-10%"},
      {"measurement": "slight nausea, share of cases", "setting": "[7]; disappearing after about one week of treatment", "value": "about 30%"}
    ]}
  ]
}
